SMILES strings stand for the structures.

What is called IC50 is the concentration that gives 50% inhibition.

The subject of the test is A375 melanoma cells (B-Raf V600E mutation). As to the kind of experiment: A375 (A375_P-ERK) cell activity / cell growth inhibition assay. It is filed as cell-based, human. The settings on record: Homo sapiens, A-375; A375 cells (text: A375_P-ERK).

For the compound `CCC(C)S(=O)(=O)Nc1cccc(C(=O)c2c[nH]c3ncc(-c4cnc(C(C)C)nc4)cc23)c1F` (stereo not drawn) [P-0229, N-[2-fluoro-3-[5-(2-isopropylpyrimidin-5-yl)-1H-pyrrolo[2,3-b]pyridine-3-carbonyl]phenyl]butane-2-sulfonamide], the IC50 is < 1 µM.

Regarding `CCC(C)S(=O)(=O)Nc1cccc(C(=O)c2c[nH]c3ncc(-c4ccc(N(C)C)nc4)cc23)c1F` (stereo not drawn) [P-0230, N-[3-[5-[6-(dimethylamino)-3-pyridyl]-1H-pyrrolo[2,3-b]pyridine-3-carbonyl]-2-fluoro-phenyl]butane-2-sulfonamide], the half-maximal inhibitory concentration (IC50) was < 1 µM.

Take `CCC(C)S(=O)(=O)Nc1cccc(C(=O)c2c[nH]c3ncc(-c4cnc(C)nc4)cc23)c1F` (stereo not drawn) [P-0231, N-[2-fluoro-3-[5-(2-methylpyrimidin-5-yl)-1H-pyrrolo[2,3-b]pyridine-3-carbonyl]phenyl]butane-2-sulfonamide]: the IC50 is < 1 µM.

Take `O=C(c1cccc(NS(=O)(=O)N2CCCC2)c1F)c1c[nH]c2ncc(-c3cnc(N4CCOCC4)nc3)cc12` [P-0235, N-[2-fluoro-3-[5-(2-morpholinopyrimidin-5-yl)-1H-pyrrolo[2,3-b]pyridine-3-carbonyl]phenyl]pyrrolidine-1-sulfonamide]: the IC50 was < 1 µM.

Turning to `CCC(C)S(=O)(=O)Nc1cccc(C(=O)c2c[nH]c3ncc(-c4cnc(N5CCOCC5)nc4)cc23)c1F` (stereo not drawn) [P-0236, N-[2-fluoro-3-[5-(2-morpholinopyrimidin-5-yl)-1H-pyrrolo[2,3-b]pyridine-3-carbonyl]phenyl]butane-2-sulfonamide], the half-maximal inhibitory concentration (IC50) was < 1 µM.

As for `CN(C)S(=O)(=O)Nc1ccc(F)c(C(=O)c2c[nH]c3ncc(-c4ccc(C5(C#N)CC5)cc4)cc23)c1F` [P-0237, 5-[4-(1-cyanocyclopropyl)phenyl]-3-[3-(dimethylsulfamoylamino)-2,6-difluoro-benzoyl]-1H-pyrrolo[2,3-b]pyridine], the IC50 was < 1 µM.

As to `CN(C)S(=O)(=O)Nc1ccc(F)c(C(=O)c2c[nH]c3ncc(-c4cnc(C5CC5)nc4)cc23)c1F` [P-0238, 5-(2-cyclopropylpyrimidin-5-yl)-3-[3-(dimethylsulfamoylamino)-2,6-difluoro-benzoyl]-1H-pyrrolo[2,3-b]pyridine], the IC50 was < 1 µM.

`CCN(C)S(=O)(=O)Nc1ccc(F)c(C(=O)c2c[nH]c3ncc(-c4ccc(C5(C#N)CC5)cc4)cc23)c1F` [P-0239, 5-[4-(1-cyanocyclopropyl)phenyl]-3-[3-[[ethyl(methyl)sulfamoyl]amino]-2,6-difluoro-benzoyl]-1H-pyrrolo[2,3-b]pyridine]: the IC50 was < 1 µM.

Regarding `CCN(C)S(=O)(=O)Nc1ccc(F)c(C(=O)c2c[nH]c3ncc(-c4cnc(C5CC5)nc4)cc23)c1F` [P-0240, 5-(2-cyclopropylpyrimidin-5-yl)-3-[3-[[ethyl(methyl)sulfamoyl]amino]-2,6-difluoro-benzoyl]-1H-pyrrolo[2,3-b]pyridine], the IC50 was < 1 µM.

For the compound `O=C(c1c(F)ccc(NS(=O)(=O)N2CCCC2)c1F)c1c[nH]c2ncc(-c3cnc(C4CC4)nc3)cc12` [P-0241, N-[3-[5-(2-cyclopropylpyrimidin-5-yl)-1H-pyrrolo[2,3-b]pyridine-3-carbonyl]-2,4-difluoro-phenyl]pyrrolidine-1-sulfonamide], the IC50 is < 1 µM.

Take `CCCNS(=O)(=O)Nc1cccc(C(=O)c2c[nH]c3ncc(-c4cnn(C)c4)cc23)c1F` [P-0242, [2-fluoro-3-(propylsulfamoylamino)phenyl]-[5-(1-methylpyrazol-4-yl)-1H-pyrrolo[2,3-b]pyridin-3-yl]methanone]: the IC50 is > 1 µM.

For the compound `O=C(c1cccc(NS(=O)(=O)N2CCCC2)c1F)c1c[nH]c2ncc(-c3ccc(C4(C(=O)O)CC4)cc3)cc12` [P-0243, 1-[4-[3-[2-fluoro-3-(pyrrolidin-1-ylsulfonylamino)benzoyl]-1H-pyrrolo[2,3-b]pyridin-5-yl]phenyl]cyclopropanecarboxylic acid], the concentration for half-maximal inhibition (IC50) was > 1 µM.

Take `CC1CCN(S(=O)(=O)Nc2cccc(C(=O)c3c[nH]c4ncc(-c5cnc(C6CC6)nc5)cc34)c2F)C1` (stereo not drawn) [P-0247, N-[3-[5-(2-cyclopropylpyrimidin-5-yl)-1H-pyrrolo[2,3-b]pyridine-3-carbonyl]-2-fluoro-phenyl]-3-methyl-pyrrolidine-1-sulfonamide]: the half-inhibitory concentration (IC50) is < 1 µM.

As for `N#CC1(c2ccc(-c3cnc4[nH]cc(C(=O)c5c(F)ccc(NS(=O)(=O)N6CCCC6)c5F)c4c3)cc2)CC1` [P-0248, N-[3-[5-[4-(1-cyanocyclopropyl)phenyl]-1H-pyrrolo[2,3-b]pyridine-3-carbonyl]-2,4-difluoro-phenyl]pyrrolidine-1-sulfonamide], the IC50 was < 1 µM.

As to `CN(C1CC1)S(=O)(=O)Nc1cccc(C(=O)c2c[nH]c3ncc(-c4cnc(C5CC5)nc4)cc23)c1F` [P-0249, 3-[3-[[cyclopropyl(methyl)sulfamoyl]amino]-2-fluoro-benzoyl]-5-(2-cyclopropylpyrimidin-5-yl)-1H-pyrrolo[2,3-b]pyridine], the IC50 was < 1 µM.

For `CCCNS(=O)(=O)Nc1cccc(C(=O)c2c[nH]c3ncc(-c4cnc(C5CC5)nc4)cc23)c1F` [P-0251, [5-(2-cyclopropylpyrimidin-5-yl)-1H-pyrrolo[2,3-b]pyridin-3-yl]-[2-fluoro-3-(propylsulfamoylamino)phenyl]methanone], the concentration for half-maximal inhibition (IC50) was > 1 µM.

As to `CN(C1CC1)S(=O)(=O)Nc1ccc(F)c(C(=O)c2c[nH]c3ncc(-c4cnc(C5CC5)nc4)cc23)c1F` [P-0252, 3-[3-[[cyclopropyl(methyl)sulfamoyl]amino]-2,6-difluoro-benzoyl]-5-(2-cyclopropylpyrimidin-5-yl)-1H-pyrrolo[2,3-b]pyridine], the 50% inhibitory concentration (IC50) is < 1 µM.

On to `NC(=O)C1(c2ccc(-c3cnc4[nH]cc(C(=O)c5cccc(NS(=O)(=O)N6CCCC6)c5F)c4c3)cc2)CC1` [P-0253, 1-[4-[3-[2-fluoro-3-(pyrrolidin-1-ylsulfonylamino)benzoyl]-1H-pyrrolo[2,3-b]pyridin-5-yl]phenyl]cyclopropanecarboxamide], for which the IC50 is > 1 µM.

For the compound `CCOc1ncc(-c2cnc3[nH]cc(C(=O)c4c(F)ccc(NS(=O)(=O)N(C)CC)c4F)c3c2)cn1` [P-0256, 5-(2-ethoxypyrimidin-5-yl)-3-[3-[[ethyl(methyl)sulfamoyl]amino]-2,6-difluoro-benzoyl]-1H-pyrrolo[2,3-b]pyridine], the IC50 is < 1 µM.

In the case of `CCN(C)S(=O)(=O)Nc1ccc(F)c(C(=O)c2c[nH]c3ncc(-c4cnc(N5CCOCC5)nc4)cc23)c1F` [P-0258, 4-[5-[3-[3-[[ethyl(methyl)sulfamoyl]amino]-2,6-difluoro-benzoyl]-1H-pyrrolo[2,3-b]pyridin-5-yl]pyrimidin-2-yl]morpholine], the half-inhibitory concentration (IC50) is < 1 µM.

`CCN(C)S(=O)(=O)Nc1ccc(F)c(C(=O)c2c[nH]c3ncc(-c4cccc(N5CCOCC5)c4)cc23)c1F` [P-0259, 4-[3-[3-[3-[[ethyl(methyl)sulfamoyl]amino]-2,6-difluoro-benzoyl]-1H-pyrrolo[2,3-b]pyridin-5-yl]phenyl]morpholine]: the concentration for half-maximal inhibition (IC50) was < 1 µM.

With `CN1CCN(c2ncc(-c3cnc4[nH]cc(C(=O)c5c(F)ccc(NS(=O)(=O)N6CCCC6)c5F)c4c3)cn2)CC1` [P-0260, N-[2,4-difluoro-3-[5-[2-(4-methylpiperazin-1-yl)pyrimidin-5-yl]-1H-pyrrolo[2,3-b]pyridine-3-carbonyl]phenyl]pyrrolidine-1-sulfonamide], the IC50 is < 1 µM.

For `O=C(c1c(F)ccc(NS(=O)(=O)N2CCCC2)c1F)c1c[nH]c2ncc(-c3cnc(N4CCNCC4)nc3)cc12` [P-0261, N-[2,4-difluoro-3-[5-(2-piperazin-1-ylpyrimidin-5-yl)-1H-pyrrolo[2,3-b]pyridine-3-carbonyl]phenyl]pyrrolidine-1-sulfonamide], the 50% inhibitory concentration (IC50) was < 1 µM.

In the case of `O=C(c1c(F)ccc(NS(=O)(=O)N2CCCC2)c1F)c1c[nH]c2ncc(-c3cnc(N4CCC(O)CC4)nc3)cc12` [P-0262, N-[2,4-difluoro-3-[5-[2-(4-hydroxy-1-piperidyl)pyrimidin-5-yl]-1H-pyrrolo[2,3-b]pyridine-3-carbonyl]phenyl]pyrrolidine-1-sulfonamide], the IC50 is < 1 µM.

Turning to `CCN(C)S(=O)(=O)Nc1ccc(F)c(C(=O)c2c[nH]c3ncc(-c4cnc(N5CCN(C)CC5)nc4)cc23)c1F` [P-0263, 3-[3-[[ethyl(methyl)sulfamoyl]amino]-2,6-difluoro-benzoyl]-5-[2-(4-methylpiperazin-1-yl)pyrimidin-5-yl]-1H-pyrrolo[2,3-b]pyridine], the IC50 was < 1 µM.

On to `CC(C)(O)c1nc(-c2cnc3[nH]cc(C(=O)c4c(F)ccc(NS(=O)(=O)N5CCCC5)c4F)c3c2)cs1` [P-0265, N-[2,4-difluoro-3-[5-[2-(1-hydroxy-1-methyl-ethyl)thiazol-4-yl]-1H-pyrrolo[2,3-b]pyridine-3-carbonyl]phenyl]pyrrolidine-1-sulfonamide], for which the IC50 is < 1 µM.

`CCN(C)S(=O)(=O)Nc1ccc(F)c(C(=O)c2c[nH]c3ncc(-c4cnc(N5CCNCC5)nc4)cc23)c1F` [P-0268, 3-[3-[[ethyl(methyl)sulfamoyl]amino]-2,6-difluoro-benzoyl]-5-(2-piperazin-1-ylpyrimidin-5-yl)-1H-pyrrolo[2,3-b]pyridine]: the 50% inhibitory concentration (IC50) is < 1 µM.

In the case of `O=C(c1c(F)ccc(NS(=O)(=O)N2CCCC2)c1F)c1c[nH]c2ncc(-c3cnc(N4CCC4)nc3)cc12` [P-0269, N-[3-[5-[2-(azetidin-1-yl)pyrimidin-5-yl]-1H-pyrrolo[2,3-b]pyridine-3-carbonyl]-2,4-difluoro-phenyl]pyrrolidine-1-sulfonamide], the IC50 is < 1 µM.

For `C[C@@H]1CCN(S(=O)(=O)Nc2cccc(C(=O)c3c[nH]c4ncc(-c5cnc(C6CC6)nc5)cc34)c2F)C1` [P-0271, (3R)—N-[3-[5-(2-cyclopropylpyrimidin-5-yl)-1H-pyrrolo[2,3-b]pyridine-3-carbonyl]-2-fluoro-phenyl]-3-methyl-pyrrolidine-1-sulfonamide], the IC50 was < 1 µM.

`O=C(c1c(F)ccc(NS(=O)(=O)N2CCCC2)c1F)c1c[nH]c2ncc(-c3ccncc3)cc12` [P-0273, N-[2,4-difluoro-3-[5-(4-pyridyl)-1H-pyrrolo[2,3-b]pyridine-3-carbonyl]phenyl]pyrrolidine-1-sulfonamide]: the IC50 was < 1 µM.

(Values after US11337976B2 (Plexxikon Inc., priority 2011, dated 2022).)
